According to PubChem BioAssay (NCI):
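A five-concentration, 48-hour dose response in 96-well plates underlies each endpoint, interpolated linearly between surrounding concentrations. GI50 marks 50% less growth. TGI marks complete inhibition of growth.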

System: NCI-H23 lung
Experiment: inhibition of tumour cell growth, NCI panel, 48 h

Compound | TGI [µM]
CCOC(=O)c1c(SC(=O)/C=C/c2ccccc2)n(-c2ccccc2)c(=S)n(-c2ccccc2)c1=O | > 100

System: NCI-H460 lung
Experiment: inhibition of tumour cell growth, NCI panel, 48 h

Compound | GI50 [µM] | TGI [µM]
C=C1C(=O)O[C@H]2[C@H]1CC/C(COC(=O)/C=C\C(=O)NCc1ccc(Cn3c(=O)sn(-c4ccc(C#N)cc4)c3=O)cc1)=C\CC[C@@]1(C)O[C@@H]21 | 0.844 | 1.83
COc1cc2c3c(n(CCCCl)c(=O)c2cc1OC)-c1ccccc1C3=O | 3.66 | > 100
COc1cc(C2c3cc4c(cc3[C@@H](Nc3ccccc3)C3CO[C@@H](OC)[C@H]23)OCO4)cc(OC)c1O (stereo partly specified) | – | > 25
CCOC(=O)c1c(SC(=O)/C=C/c2ccccc2)n(-c2ccccc2)c(=S)n(-c2ccccc2)c1=O | – | > 100

System: NCI-H522 lung
Experiment: inhibition of tumour cell growth, NCI panel, 48 h

Compound | GI50 [µM] | TGI [µM]
C=C1C(=O)O[C@H]2[C@H]1CC/C(COC(=O)/C=C\C(=O)NCc1ccc(Cn3c(=O)sn(-c4ccc(C#N)cc4)c3=O)cc1)=C\CC[C@@]1(C)O[C@@H]21 | 0.714 | 1.65
COc1cc2c3c(n(CCCCl)c(=O)c2cc1OC)-c1ccccc1C3=O | 5.31 | > 100
COc1cc(C2c3cc4c(cc3[C@@H](Nc3ccccc3)C3CO[C@@H](OC)[C@H]23)OCO4)cc(OC)c1O (stereo partly specified) | – | > 25
CCOC(=O)c1c(SC(=O)/C=C/c2ccccc2)n(-c2ccccc2)c(=S)n(-c2ccccc2)c1=O | – | > 100

System: NCI/ADR-RES ovarian
Experiment: inhibition of tumour cell growth, NCI panel, 48 h

Compound | GI50 [µM] | TGI [µM]
C=C1C(=O)O[C@H]2[C@H]1CC/C(COC(=O)/C=C\C(=O)NCc1ccc(Cn3c(=O)sn(-c4ccc(C#N)cc4)c3=O)cc1)=C\CC[C@@]1(C)O[C@@H]21 | 1.39 | 5.97
COc1cc2c3c(n(CCCCl)c(=O)c2cc1OC)-c1ccccc1C3=O | 6.36 | > 100
COc1cc(C2c3cc4c(cc3[C@@H](Nc3ccccc3)C3CO[C@@H](OC)[C@H]23)OCO4)cc(OC)c1O (stereo partly specified) | – | > 25
CCOC(=O)c1c(SC(=O)/C=C/c2ccccc2)n(-c2ccccc2)c(=S)n(-c2ccccc2)c1=O | – | > 100
CC(=O)OC[C@]12CC[C@H]3[C@@H](C[C@H]4O[C@]45CC=CC(=O)[C@]35C)[C@]1(O)CC[C@@]2(O)[C@@](C)(O)C1CC(C)=C(C)C(=O)O1 (stereo partly specified) | > 23.6 | > 100
COC(=O)c1ccc2c(c1)n(Cc1ccc3ccccc3c1)c[n+]2Cc1ccc2ccccc2c1 | 24 | > 100

System: OVCAR-3 ovarian
Experiment: inhibition of tumour cell growth, NCI panel, 48 h

Compound | GI50 [µM] | TGI [µM]
C=C1C(=O)O[C@H]2[C@H]1CC/C(COC(=O)/C=C\C(=O)NCc1ccc(Cn3c(=O)sn(-c4ccc(C#N)cc4)c3=O)cc1)=C\CC[C@@]1(C)O[C@@H]21 | 0.306 | 0.953
COc1cc2c3c(n(CCCCl)c(=O)c2cc1OC)-c1ccccc1C3=O | 10.6 | 54.8
CCOC(=O)c1c(SC(=O)/C=C/c2ccccc2)n(-c2ccccc2)c(=S)n(-c2ccccc2)c1=O | – | > 100
COC(=O)c1ccc2c(c1)n(Cc1ccc3ccccc3c1)c[n+]2Cc1ccc2ccccc2c1 | 1.37 | 2.78

System: OVCAR-4 ovarian
Experiment: inhibition of tumour cell growth, NCI panel, 48 h

Compound | GI50 [µM] | TGI [µM]
C=C1C(=O)O[C@H]2[C@H]1CC/C(COC(=O)/C=C\C(=O)NCc1ccc(Cn3c(=O)sn(-c4ccc(C#N)cc4)c3=O)cc1)=C\CC[C@@]1(C)O[C@@H]21 | 0.672 | 1.37
COc1cc(C2c3cc4c(cc3[C@@H](Nc3ccccc3)C3CO[C@@H](OC)[C@H]23)OCO4)cc(OC)c1O (stereo partly specified) | – | > 25
CCOC(=O)c1c(SC(=O)/C=C/c2ccccc2)n(-c2ccccc2)c(=S)n(-c2ccccc2)c1=O | – | > 100
CC(=O)OC[C@]12CC[C@H]3[C@@H](C[C@H]4O[C@]45CC=CC(=O)[C@]35C)[C@]1(O)CC[C@@]2(O)[C@@](C)(O)C1CC(C)=C(C)C(=O)O1 (stereo partly specified) | – | > 34.9

System: OVCAR-5 ovarian
Experiment: inhibition of tumour cell growth, NCI panel, 48 h

Compound | GI50 [µM] | TGI [µM]
C=C1C(=O)O[C@H]2[C@H]1CC/C(COC(=O)/C=C\C(=O)NCc1ccc(Cn3c(=O)sn(-c4ccc(C#N)cc4)c3=O)cc1)=C\CC[C@@]1(C)O[C@@H]21 | 0.868 | 1.84
COc1cc(C2c3cc4c(cc3[C@@H](Nc3ccccc3)C3CO[C@@H](OC)[C@H]23)OCO4)cc(OC)c1O (stereo partly specified) | – | 23.8
CCOC(=O)c1c(SC(=O)/C=C/c2ccccc2)n(-c2ccccc2)c(=S)n(-c2ccccc2)c1=O | – | > 100
CC(=O)OC[C@]12CC[C@H]3[C@@H](C[C@H]4O[C@]45CC=CC(=O)[C@]35C)[C@]1(O)CC[C@@]2(O)[C@@](C)(O)C1CC(C)=C(C)C(=O)O1 (stereo partly specified) | – | > 20.1
COC(=O)c1ccc2c(c1)n(Cc1ccc3ccccc3c1)c[n+]2Cc1ccc2ccccc2c1 | 2.12 | 13.7

System: OVCAR-8 ovarian
Experiment: inhibition of tumour cell growth, NCI panel, 48 h

Compound | GI50 [µM] | TGI [µM]
C=C1C(=O)O[C@H]2[C@H]1CC/C(COC(=O)/C=C\C(=O)NCc1ccc(Cn3c(=O)sn(-c4ccc(C#N)cc4)c3=O)cc1)=C\CC[C@@]1(C)O[C@@H]21 | 0.802 | 2.7
COc1cc2c3c(n(CCCCl)c(=O)c2cc1OC)-c1ccccc1C3=O | 13.4 | > 100
